Converted amounts (≈) assume the structure as drawn.
Columns and labels:
[1] = molecular target: T1, Peptide deformylase 1A, chloroplastic/mitochondrial (Arabidopsis thaliana, UniProt Q9FV53)
T1 sequence (Q9FV53 whole entry): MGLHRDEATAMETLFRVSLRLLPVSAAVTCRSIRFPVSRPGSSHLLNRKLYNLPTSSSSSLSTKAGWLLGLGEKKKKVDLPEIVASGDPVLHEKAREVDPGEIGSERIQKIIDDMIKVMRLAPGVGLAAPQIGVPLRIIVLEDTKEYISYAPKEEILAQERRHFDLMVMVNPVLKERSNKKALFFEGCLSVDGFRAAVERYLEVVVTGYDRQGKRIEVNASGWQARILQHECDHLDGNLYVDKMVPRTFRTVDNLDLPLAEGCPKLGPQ

[2] = molecular target: T2, Peptide deformylase (Escherichia coli, UniProt Q9JN24)
T2 sequence (Q9JN24 whole entry): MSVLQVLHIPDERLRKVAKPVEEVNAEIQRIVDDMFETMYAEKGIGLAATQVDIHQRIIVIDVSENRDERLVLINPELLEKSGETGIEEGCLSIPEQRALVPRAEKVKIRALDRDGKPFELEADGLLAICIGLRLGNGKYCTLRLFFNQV

[3] = tested on: Bacillus subtilis; test: Antibacterial activity against Bacillus subtilis Y101; assay type: functional
[4] = tested on: Escherichia coli; test: Antibacterial activity against Escherichia coli JM101Tr; assay type: functional
[5] = tested on: Bacillus subtilis; test: Antibacterial activity against Bacillus subtilis MO3482; assay type: functional
[6] = tested on: Bacillus subtilis; test: Antibacterial activity against Bacillus subtilis D101; assay type: functional
[7] = tested on: Escherichia coli; test: Antibacterial activity against Escherichia coli CAG1284; assay type: functional
[8] = tested on: Bacillus subtilis; test: Antibacterial activity against Bacillus subtilis 168; assay type: functional
[9] = tested on: Bacillus subtilis; test: Antibacterial activity against Bacillus subtilis; assay type: functional
[10] = molecular target: T3, Peptide deformylase, mitochondrial (Homo sapiens, UniProt Q9HBH1)
T3 sequence (Q9HBH1 whole entry): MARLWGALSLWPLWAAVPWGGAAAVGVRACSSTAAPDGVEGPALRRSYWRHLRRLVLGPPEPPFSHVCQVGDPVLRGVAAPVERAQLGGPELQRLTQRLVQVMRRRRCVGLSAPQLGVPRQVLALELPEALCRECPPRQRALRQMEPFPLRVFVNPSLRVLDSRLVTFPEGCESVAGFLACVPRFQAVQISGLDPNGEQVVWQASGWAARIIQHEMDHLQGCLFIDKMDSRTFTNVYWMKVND

[11] = tested on: Escherichia coli; test: Antibacterial activity against Escherichia coli K37; assay type: functional

SMILES | IC50 [1] [µM] | IC50 [2] [µM] | MIC [4] [µg/mL] | also measured
CC(C)(C)OC(=O)NC(CNO)Cc1ccccc1 (stereo not given) | > 1000 | 52 |  | 
O=C(CO)Cc1c[nH]c2ccc(Br)cc12 | 790 | 560 | > 300 | MIC [3]: > 300 µg/mL; MIC [5]: > 300 µg/mL; MIC [6]: > 300 µg/mL; MIC [7]: > 300 µg/mL; MIC [8]: > 300 µg/mL
CC(=O)SCC(=O)Cc1c[nH]c2ccccc12 | > 1000 | 200 |  | 
Cc1[nH]c2ccc(Br)cc2c1CC(=O)NO | 450 |  | > 300 | MIC [9]: 220 µg/mL (≈ 777 µM); IC50 [10]: 450 µM
COc1ccc2[nH]cc(CC(=O)NO)c2c1 | > 1000 |  | > 300 | MIC [9]: 155 µg/mL (≈ 704 µM)
Cc1c(CN(O)C=O)c2cc(Br)ccc2n1S(=O)(=O)c1ccccc1 | 35 | 0.03 | 65 (≈ 154 µM) | MIC [9]: 35 µg/mL (≈ 82.7 µM); IC50 [10]: 200 µM
O=C(O)Cc1cn(C(=O)OCc2ccccc2)c2ccccc12 | > 1000 | 300 |  | 
CC(C)(C)OC(=O)NC(Cc1ccccc1)CN(O)C=O (stereo not given) |  | 0.05 | > 300 | MIC [3]: 9 µg/mL (≈ 30.6 µM); MIC [5]: > 300 µg/mL; MIC [6]: > 300 µg/mL; MIC [7]: 120 µg/mL (≈ 408 µM); MIC [8]: > 300 µg/mL
CC(=O)SCC(=O)Cc1cn(C(=O)OCc2ccccc2)c2ccccc12 | 500 | 350 |  | 
O=C(CS)Cc1c[nH]c2ccc(Br)cc12 | 200 | 80 |  | 
Cc1c(CNO)c2cc(Br)ccc2n1S(=O)(=O)c1ccccc1 | 500 | 6 |  | 
CC(=O)SCC(=O)Cc1c[nH]c2ccc(Br)cc12 | 170 | 120 |  | 
Cc1[nH]c2ccc(Br)cc2c1CNO | > 250 | 50 |  | 
CCCCC[C@H](CC(=O)NO)C(=O)N[C@H](C(=O)N1CCC[C@H]1CO)C(C)C [ACTINONIN] | 0.027 | 0.01 | 34 (≈ 88.2 µM) | MIC [9]: 1.3 µg/mL (≈ 3.37 µM); MIC [3]: 0.125 µg/mL (≈ 0.324 µM); MIC [5]: 1 µg/mL (≈ 2.59 µM); MIC [11]: 32 µg/mL (≈ 83 µM); MIC [6]: 1 µg/mL (≈ 2.59 µM); MIC [7]: 0.125 µg/mL (≈ 0.324 µM); MIC [8]: 1 µg/mL (≈ 2.59 µM)
O=C(O)Cc1c[nH]c2ccccc12 [INDOLE-3-ACETIC ACID] | > 1000 | > 1000 |  | 

Reference: ChEMBL document CHEMBL1139216, “Discovery and refinement of a new structural class of potent peptide deformylase inhibitors” (J Med Chem, 2007)
